Measured values: a melting point compilation (Tetko et al.; mined from patent text by program, amines drawn as free bases though some values may be those of a salt)

Row | Compound | melting point [°C]
1 | O=S1(=O)NC(C2CCCCC2)Nc2ccc(S(=O)(=O)N3CCOCC3)cc21 (centres undefined) | 262 to 264
2 | Cc1csc(C#CCCn2nc3ccccc3n2)n1 | 78 to 80
3 | FC(F)(F)c1ccccc1P(=S)(S)c1ccccc1C(F)(F)F | 93 to 94
4 | Cc1cc(-c2cc(C(F)(F)F)n3ncc(I)c3n2)ccc1Cl | 151
5 | O=c1oc(C(F)F)nc2c(C(F)(F)F)cccc12 | 82
6 | Nc1nc2cc3c(cc2s1)OCO3 | 200
7 | CC(=O)c1cc(CN2CCN(CCO)CC2)ccc1O | 72 to 75
8 | N#Cc1cc2nc(O)c(O)nc2cc1C(F)(F)F | > 300
9 | COC(=O)c1sc(C(=O)OC)c(OC)c1N | 120 to 124
10 | CC1(c2cc(-c3ccc(F)cc3F)cc(C(=O)Nc3ccc(S(=O)(=O)C(F)(F)F)cc3Cl)c2O)CCCCC1 | 114 to 115
11 | COc1cc2sc(=O)n(C(C)=O)c2cc1OC | 164 to 165
12 | CCN1C(=O)C(C)(C)C(=O)N(C)c2cc(CN(CCn3ccc4oc(C)cc4c3=O)Cc3ccc(OC)nc3C)ccc21 | 155 to 156
13 | CS(=O)(=O)c1ccc(-c2cnc3cnc(-c4ccc(O)cc4)nc3c2)cc1 | 306 to 307
14 | CC(C)C1(C)N=C(c2ncc(CN(C)C)cc2C(=O)O)NC1=O (centres undefined) | 186 to 190
15 | O=c1[nH]c(=O)n(C2CC(OCc3cccc(Cl)c3)C(CO)O2)cc1F (centres undefined) | 153 to 155
16 | CC(C)(C)Cc1nc2cc(CC(=O)O)ccc2o1 | 108 to 109
17 | COc1ccc(CCc2oc3ccc(Br)cc3c2C(C)=O)cc1 | 100 to 101
18 | CCOC(=O)c1cc2cc(C=O)cc(C(C)CC)c2oc1=O (centres undefined) | 89 to 90
19 | CC(=O)OCC(=O)Nc1cccc(N2CCCCC2)c1C#N | 90 to 92
20 | CCOC(=O)C1(C(=O)Nc2ccc(F)cc2F)CC1 | 79 to 80.5
21 | CCOC(=O)C(CC(N)=O)(C(=O)OCC)n1cccc1 | 94 to 95

Continued, values first:

Row | melting point [°C] | Compound
22 | 141 to 143 | Cc1nn(S(=O)Oc2ccccc2)c2ccccc12 (centres undefined)
23 | 150 to 152 | N#Cc1ccc(-c2ccc(OCc3ccccc3)cc2)cc1
24 | 139 to 140 | COc1ccc(CCN2CCN(C(=O)c3ccc(N(CCOC(C)C)C(=O)CCl)cc3)CC2)cc1
25 | 170 | CSc1ccc(C2=NC[C@@H](OC(=O)Nc3ccccc3)[C@H](c3ccccc3)O2)cc1 (racemic)
26 | 76 to 77 | O=C1C(=O)c2ccc(F)cc2C2=C1SCC1(CCN(CC(O)Cc3ccccc3)CC1)O2 (centres undefined)
27 | 79 to 82 | N#Cc1ncccc1Oc1ccccc1
28 | > 350 | O=c1[nH]c(Nc2ccccc2)nc2c1ncn2CCCCO
29 | 213 to 214 | CC(C(=O)O)c1ccc2c(c1)C(=O)Cc1cc(F)ccc1S2 (centres undefined)
30 | 75 to 76 | COC(=O)C(=O)c1ccc(OCCOCCOc2ccccc2)cc1
31 | 205 to 207 | O=C1c2cccc(NCCc3ccccc3)c2C(=O)c2cccc(NCCc3ccccc3)c21
32 | 249 to 250 | O=C(CC(NC(=O)Cc1ccccc1)c1ccccc1)Nc1n[nH]c(=S)s1 (centres undefined)
33 | 210 | OC(=Cc1ccccc1)C(O)C(O)C(O)C(O)C(O)=Cc1ccccc1 (centres undefined)
34 | 127 to 129 | Cc1cc(C(=O)N2Cc3cccn3Cc3ccccc32)ccc1C1=CCCCC1C(C)(C)C (centres undefined)
35 | 238 to 248 | O=C(NCCCCN1CCC(c2ccc3c(c2)OCO3)CC1)c1ccc(NC(=O)c2ccc(Cl)cc2)cc1
36 | 145 to 148 | CCOC(=O)/C=C/c1cnc(-c2ccc(OCc3ccccc3)c(C34CC5CC(CC(C5)C3)C4)c2)cn1
37 | 208 to 209 | CS(=O)(=O)Nc1cc(NC(=O)CN2C(=O)c3ccccc3C2=O)ccc1Oc1ccccc1
38 | 235 to 238 | O=C(O)CN1C(=O)C(=Cc2ccc(OCc3ccccc3)c(OCc3ccccc3)c2)SC1=S
39 | 86 to 88 | S=C1C[C@@H](SCc2ccccc2)CN1
